Measured values reported in patent US10782292B2, “Antibiotic susceptibility testing via plasmonic imaging and tracking” (priority 2015, dated 2020).
“Also recorded” adds a separate entry of the source.

Tests used:
E. coli O157:H7 [1] = assay: Plasmonic imaging and tracking (PIT) of Z-movement (nanomotion) of single antibody-tethered bacterial cells; format: cell-based
E. coli O157:H7 [2] = assay: Culturing in LB medium after antibiotic treatment on the sensor chip (validation of cell death); format: cell-based
Description: […] the addition of polymyxin B, Z-movement decreases from ±5 nm to ±0.5 nm, which is close to the Brownian motion of a dead bacterium. We further validated the metabolic state by culturing and elongating the tethered cell in standard Luria Broth (LB) media before adding the antibiotic.
Referring now to FIG. […] PMB is a bactericidal antibiotic which kills Gram-negative bacteria by permeabilizing the outer membrane.^60 At high concentrations, […], PMB also depolarizes the cytoplasmic membrane, causing ion-permeable pores in the cell envelope.^30 Within a few seconds after adding the antibiotic, there was a marked decrease in the Z-movement of the bacterial cell from about ±3 to about ±1 nm. We further observed that after a few minutes, the bacterial cell Z-movement reached a baseline value of ±0.5 nm. […] The decrease in bacterial cell length has been previously correlated to cell lysis and cell death after the addition of polypeptide antibiotics.^69 We validated the correlation between the decreases in nanomotion and change of the bacterial metabolic state by replacing the antibiotic-containing PBS with LB medium (lacking PMB) on the sensor chip. […] We subsequently collected a small sample volume from the above sensor chip and subjected it to culturing overnight in LB medium.
(§1) Referring now specifically to FIG. 3D, there shown are control experiment data comparing Z-movement in PBS 102 and on injections of 2% glucose 104, 1×PBS 106, and antibiotic 108. […] After subsequently eliminating glucose in the 1×PBS medium, the amplitude of the nanomotion, measured over 1 s windows for 20 s videos, decreased back to the level prior to the injection of glucose (as shown in FIG. 3E). The positive correlation between glucose injection and Z-movement strongly supports that bacterial cell nanomotion originates from metabolic activity rather than Brownian motion.

[3] = tested on: UPEC E. coli strain CFT073; assay: PIT of Z-movement (nanomotion) of UPEC cells immobilized with APTES linker; format: cell-based; conditions: PMB 1 mg/mL, APTES surface, 1×PBS, FIG. 12
Procedure: We immobilized the UPEC strain on the sensor using the (3-aminopropyl)-triethoxysilane (APTES) linker, rather than using the antibody immobilization for the E. coli O157:H7 study described above. We studied the nanomotion changes as antibiotic PMB acted on bacterial cells at a bactericidal concentration of 1 mg/mL. […] These experiments indicate that the methods may be used for different bacterial strains and different antibiotics. To fully establish the present method for rapid AST in clinical settings, additional and more comprehensive tests will still be needed in the future.
An aliquot of frozen E. coli O157:H7 or E. coli CFT073 strain was thawed and used to inoculate 10 mL of LB medium. […]
All plasmonic imaging sequences were collected at 106 fps at a pixel resolution of 640×480. […] Images were recorded in either transmitted or plasmonic imaging mode for various time durations. […]
More specifically, the plasmonic image intensity was calculated by obtaining averaged intensity within a fixed area around the bacterial cell using the bare gold chip regions as reference. The Z-distance of the bacterial cell above the sensor surface was then calculated from the plasmonic image intensity (Iz) with a calibrated curve, given by Iz=I0 exp(−Δz/L), where I0 is a constant, Δz is the z displacement of a bacterial cell, and L is the decay constant. […]

UPEC strain = assay: Overnight culturing in LB medium after antibiotic treatment (validation of cell death), UPEC; format: cell-based, E. coli CFT073; conditions: after PMB 1 mg/mL
E. coli O157:H7 [4] = assay: Transmitted microscope image of bacterial cell length after adding antibiotic; format: cell-based
Procedure: Referring now to FIG. 3C the effect of antibiotic polymycin B at a concentration of 500 μg/mL on Z-movement of a bacterial cell is shown. […] PMB is a bactericidal antibiotic which kills Gram-negative bacteria by permeabilizing the outer membrane.^60 At high concentrations, such as […] used in this study, PMB also depolarizes the cytoplasmic membrane, causing ion-permeable pores in the cell envelope.^30 Within a few seconds after adding the antibiotic, there was a marked decrease in the Z-movement of the bacterial cell from about ±3 to about ±1 nm. We further observed that after a few minutes, the bacterial cell Z-movement reached a baseline value of ±0.5 nm. […]
as §1, with “The positive correlation between glucose injection and Z-movement strongly supports that bacterial cell nanomotion originates from metabolic activity rather than Brownian motion.” left out
All plasmonic imaging sequences were collected at 106 fps at a pixel resolution of 640×480. […] Images were recorded in either transmitted or plasmonic imaging mode for various time durations.

Gram-negative bacteria = conditions: literature reference 30; cited from earlier work

Compound | Change in nanomotion (Z-movement) after streptomycin (E. coli O157:H7 [1]; streptomycin 1 mg/mL, PBS supplemented with LB (0.4×LB media), FIG. 13) | Overnight culturing after streptomycin (E. coli O157:H7 [2]; after streptomycin 1 mg/ml) | Change in nanomotion (Z-movement) at sub-bactericidal concentration (E. coli O157:H7 [1]; 0.5 μg/ml (b80 prints 0.5 g/mL), after 20 min, 1×PBS, FIG. 10, listed as PMB) | Change in nanomotion (Z-movement) at 5× bactericidal concentration (E. coli O157:H7 [1]; 100 μg/m, 1×PBS, FIG. 10, listed as PMB) | Change in nanomotion after antibiotic in glucose control experiment (E. coli O157:H7 [1]; PMB 75 µg/mL (bactericidal concentration), FIG. 3D) | Change in Z-motion of a bacterial cell after adding antibiotic (E. coli O157:H7 [1]; added at t=120 s, FIG. 3A) | Nanomotion after replacing antibiotic-containing PBS with LB medium (E. coli O157:H7 [1]; after PMB 500 µg/mL, LB lacking PMB) | Change in nanomotion (Z-movement) of UPEC cells ([3]; listed as PMB) | Change in nanomotion (Z-movement) of UPEC cells ([3]; listed as polymycin B) | Bacterial growth on overnight culturing in LB medium (E. coli O157:H7 [2]; after PMB 75 µg/mL) | Cellular growth on subsequent incubation in LB media (E. coli O157:H7 [2]; after polymyxin B 75 μg/ml) | Growth of bacterial cells after overnight incubation in LB medium (E. coli O157:H7 [2]; sample from sensor chip after PMB 500 µg/mL) | Overnight culturing in LB medium of UPEC sample (UPEC strain; listed as PMB) | Overnight culturing in LB medium of UPEC sample (UPEC strain; listed as polymycin B) | Cell length in transmitted microscope image after antibiotic (E. coli O157:H7 [4]; PMB 75 µg/mL, FIG. 11) | Bacterial cell length after adding antibiotic (E. coli O157:H7 [4]; high antibiotic concentration (500 g/mL study)) | Concentration at which bactericidal activity has been observed (Gram-negative bacteria)
[H]/N=C(/N)N[C@H]1[C@H](O)[C@@H](O)[C@H](O[C@@H]2O[C@@H](C)[C@](O)(C=O)[C@H]2O[C@@H]2O[C@@H](CO)[C@H](O)[C@@H](O)[C@@H]2NC)[C@@H](N/C(N)=N\[H])[C@@H]1O [streptomycin] | decrease in nano-motion; also recorded: decrease in the nanomotion | confirmed the death of the bacteria |  |  |  |  |  |  |  |  |  |  |  |  |  |  | 
Polymyxin B |  |  | did not observe changes in the nanomotion; also recorded: does not change the Z-movement | significant decrease in nanomotion; also recorded: large decrease in Z-movement | decrease in bacterial nanomotion | large drop in Z-motion | no further change in the bacterial nanomotion | decrease in bacterial nanomotion | large decrease in the nano-motion | no bacterial growth | did not lead to cellular growth | no growth of bacterial cells | no bacterial growth | confirmed the death of the bacteria | visible decrease in cell length | decreases in bacterial cell length | 20 g/mL
